# According to PubChem BioAssay AID1259407 (Chemical Carcinogenesis Research Information System (CCRIS), 2018):
# Calls of active or inactive are those of the source. The rule behind the calls is not given here.
# System: CCRIS mutagenicity, Ames/micronucleus/aberration tests
# Assay: CCRIS mutagenicity studies
# [1] = Test System: AMES SALMONELLA TYPHIMURIUM, Strain/Indicator: TA98, Metabolic Activation: NONE, Method: PREINCUBATION
# [2] = Test System: AMES SALMONELLA TYPHIMURIUM, Strain/Indicator: TA100, Metabolic Activation: NONE, Method: PREINCUBATION
# [3] = Test System: AMES SALMONELLA TYPHIMURIUM, Strain/Indicator: TA1535, Metabolic Activation: NONE, Method: PREINCUBATION
compound,measurement,setting,value
COC(=O)c1ccccc1O,mutagenic call,"Test System: AMES SALMONELLA TYPHIMURIUM, Strain/Indicator: TA98, Metabolic Activation: GUINEA PIG, LIVER, S-9, PCB, Method: PREINCUBATION",inactive; negative
same,mutagenic call,"Test System: AMES SALMONELLA TYPHIMURIUM, Strain/Indicator: TA98, Metabolic Activation: HAMSTER, LIVER, S-9, AROCLOR 1254 (30%), Method: PREINCUBATION",inactive; negative
same,mutagenic call,"Test System: AMES SALMONELLA TYPHIMURIUM, Strain/Indicator: TA98, Metabolic Activation: HAMSTER, LIVER, S-9, AROCLOR 1254 (50%), Method: PREINCUBATION",inactive; negative
same,mutagenic call,"Test System: AMES SALMONELLA TYPHIMURIUM, Strain/Indicator: TA98, Metabolic Activation: HAMSTER, LIVER, S-9, PCB, Method: PREINCUBATION",active; positive
same,mutagenic call,"Test System: AMES SALMONELLA TYPHIMURIUM, Strain/Indicator: TA98, Metabolic Activation: MOUSE, LIVER, S-9, PCB, Method: PREINCUBATION",inactive; negative
same,mutagenic call,[1],inactive; negative
same,mutagenic call,"Test System: AMES SALMONELLA TYPHIMURIUM, Strain/Indicator: TA98, Metabolic Activation: RAT, LIVER, S-9, AROCLOR 1254 (30%), Method: PREINCUBATION",inactive; negative
same,mutagenic call,"Test System: AMES SALMONELLA TYPHIMURIUM, Strain/Indicator: TA98, Metabolic Activation: RAT, LIVER, S-9, AROCLOR 1254 (50%), Method: PREINCUBATION",inactive; negative
same,mutagenic call,"Test System: AMES SALMONELLA TYPHIMURIUM, Strain/Indicator: TA98, Metabolic Activation: RAT, LIVER, S-9, PCB, Method: PREINCUBATION",inactive; negative
same,mutagenic call,"Test System: AMES SALMONELLA TYPHIMURIUM, Strain/Indicator: TA100, Metabolic Activation: GUINEA PIG, LIVER, S-9, PCB, Method: PREINCUBATION",inactive; negative
same,mutagenic call,"Test System: AMES SALMONELLA TYPHIMURIUM, Strain/Indicator: TA100, Metabolic Activation: HAMSTER, LIVER, S-9, AROCLOR 1254 (30%), Method: PREINCUBATION",inactive; negative
same,mutagenic call,"Test System: AMES SALMONELLA TYPHIMURIUM, Strain/Indicator: TA100, Metabolic Activation: HAMSTER, LIVER, S-9, AROCLOR 1254 (50%), Method: PREINCUBATION",inactive; negative
same,mutagenic call,"Test System: AMES SALMONELLA TYPHIMURIUM, Strain/Indicator: TA100, Metabolic Activation: HAMSTER, LIVER, S-9, PCB, Method: PREINCUBATION",active; positive
same,mutagenic call,"Test System: AMES SALMONELLA TYPHIMURIUM, Strain/Indicator: TA100, Metabolic Activation: MOUSE, LIVER, S-9, PCB, Method: PREINCUBATION",inactive; negative
same,mutagenic call,[2],inactive; negative
same,mutagenic call,"Test System: AMES SALMONELLA TYPHIMURIUM, Strain/Indicator: TA100, Metabolic Activation: RAT, LIVER, S-9, AROCLOR 1254 (30%), Method: PREINCUBATION",inactive; negative
same,mutagenic call,"Test System: AMES SALMONELLA TYPHIMURIUM, Strain/Indicator: TA100, Metabolic Activation: RAT, LIVER, S-9, AROCLOR 1254 (50%), Method: PREINCUBATION",inactive; negative
same,mutagenic call,"Test System: AMES SALMONELLA TYPHIMURIUM, Strain/Indicator: TA100, Metabolic Activation: RAT, LIVER, S-9, PCB, Method: PREINCUBATION",inactive; negative
same,mutagenic call,"Test System: AMES SALMONELLA TYPHIMURIUM, Strain/Indicator: TA1535, Metabolic Activation: HAMSTER, LIVER, S-9, AROCLOR 1254 (30%), Method: PREINCUBATION",inactive; negative
same,mutagenic call,"Test System: AMES SALMONELLA TYPHIMURIUM, Strain/Indicator: TA1535, Metabolic Activation: HAMSTER, LIVER, S-9, AROCLOR 1254 (50%), Method: PREINCUBATION",inactive; negative
same,mutagenic call,[3],inactive; negative
same,mutagenic call,"Test System: AMES SALMONELLA TYPHIMURIUM, Strain/Indicator: TA1535, Metabolic Activation: RAT, LIVER, S-9, AROCLOR 1254 (30%), Method: PREINCUBATION",inactive; negative
same,mutagenic call,"Test System: AMES SALMONELLA TYPHIMURIUM, Strain/Indicator: TA1535, Metabolic Activation: RAT, LIVER, S-9, AROCLOR 1254 (50%), Method: PREINCUBATION",inactive; negative
same,mutagenic call,"Test System: AMES SALMONELLA TYPHIMURIUM, Strain/Indicator: TA1537, Metabolic Activation: HAMSTER, LIVER, S-9, AROCLOR 1254 (30%), Method: PREINCUBATION",inactive; negative
same,mutagenic call,"Test System: AMES SALMONELLA TYPHIMURIUM, Strain/Indicator: TA1537, Metabolic Activation: HAMSTER, LIVER, S-9, AROCLOR 1254 (50%), Method: PREINCUBATION",inactive; negative
same,mutagenic call,"Test System: AMES SALMONELLA TYPHIMURIUM, Strain/Indicator: TA1537, Metabolic Activation: NONE, Method: PREINCUBATION",inactive; negative
same,mutagenic call,"Test System: AMES SALMONELLA TYPHIMURIUM, Strain/Indicator: TA1537, Metabolic Activation: RAT, LIVER, S-9, AROCLOR 1254 (30%), Method: PREINCUBATION",inactive; negative
same,mutagenic call,"Test System: AMES SALMONELLA TYPHIMURIUM, Strain/Indicator: TA1537, Metabolic Activation: RAT, LIVER, S-9, AROCLOR 1254 (50%), Method: PREINCUBATION",inactive; negative
c1ccc2c(c1)Oc1ccccc1S2,mutagenic call,"Test System: AMES SALMONELLA TYPHIMURIUM, Strain/Indicator: TA97, Metabolic Activation: HAMSTER, LIVER, S-9, AROCLOR 1254 (10 OR 30%), Method: PREINCUBATION",inactive; negative
same,mutagenic call,"Test System: AMES SALMONELLA TYPHIMURIUM, Strain/Indicator: TA97, Metabolic Activation: NONE, Method: PREINCUBATION",inactive; negative
same,mutagenic call,"Test System: AMES SALMONELLA TYPHIMURIUM, Strain/Indicator: TA97, Metabolic Activation: RAT, LIVER, S-9, AROCLOR 1254 (10 OR 30%), Method: PREINCUBATION",inactive; negative
same,mutagenic call,"Test System: AMES SALMONELLA TYPHIMURIUM, Strain/Indicator: TA98, Metabolic Activation: HAMSTER, LIVER, S-9, AROCLOR 1254 (10 OR 30%), Method: PREINCUBATION",inactive; negative
same,mutagenic call,[1],inactive; negative
same,mutagenic call,"Test System: AMES SALMONELLA TYPHIMURIUM, Strain/Indicator: TA98, Metabolic Activation: RAT, LIVER, S-9, AROCLOR 1254 (10 OR 30%), Method: PREINCUBATION",inactive; negative
same,mutagenic call,"Test System: AMES SALMONELLA TYPHIMURIUM, Strain/Indicator: TA100, Metabolic Activation: HAMSTER, LIVER, S-9, AROCLOR 1254 (10 OR 30%), Method: PREINCUBATION",inactive; negative
same,mutagenic call,[2],inactive; negative
same,mutagenic call,"Test System: AMES SALMONELLA TYPHIMURIUM, Strain/Indicator: TA100, Metabolic Activation: RAT, LIVER, S-9, AROCLOR 1254 (10 OR 30%), Method: PREINCUBATION",inactive; negative
same,mutagenic call,"Test System: AMES SALMONELLA TYPHIMURIUM, Strain/Indicator: TA1535, Metabolic Activation: HAMSTER, LIVER, S-9, AROCLOR 1254 (10 OR 30%), Method: PREINCUBATION",inactive; negative
same,mutagenic call,[3],inactive; negative
same,mutagenic call,"Test System: AMES SALMONELLA TYPHIMURIUM, Strain/Indicator: TA1535, Metabolic Activation: RAT, LIVER, S-9, AROCLOR 1254 (10 OR 30%), Method: PREINCUBATION",inactive; negative
N[C@@H]1CCCCN1.[Cl][Pt][Cl],mutagenic call,[1],active; positive
same,mutagenic call,[2],active; positive
same,mutagenic call,"Test System: AMES SALMONELLA TYPHIMURIUM, Strain/Indicator: TA100, Metabolic Activation: RAT, LIVER, S-9, AROCLOR 1254, Method: PREINCUBATION",active; positive
Cc1c2ccccc2c(CO)c2c1ccc1ccccc12,mutagenic call,"Test System: CHINESE HAMSTER V-79, Strain/Indicator: V-79/6-THIOGUANINE, Metabolic Activation: CELL-MEDIATED, Method: STANDARD PLATE",active; positive
same,mutagenic call,"Test System: CHINESE HAMSTER V-79, Strain/Indicator: V-79/OUABAIN, Metabolic Activation: CELL-MEDIATED, Method: STANDARD PLATE",active; positive
CC(C)(C)c1ccc(/C=C/c2ccc(N)cc2)cc1,mutagenic call,"Test System: AMES SALMONELLA TYPHIMURIUM, Strain/Indicator: TA98, Metabolic Activation: NONE, Method: STANDARD PLATE",inactive; negative
same,mutagenic call,"Test System: AMES SALMONELLA TYPHIMURIUM, Strain/Indicator: TA98, Metabolic Activation: RAT, LIVER, S-9, AROCLOR, Method: STANDARD PLATE",inactive; negative
same,mutagenic call,"Test System: AMES SALMONELLA TYPHIMURIUM, Strain/Indicator: TA100, Metabolic Activation: NONE, Method: STANDARD PLATE",inactive; negative
same,mutagenic call,"Test System: AMES SALMONELLA TYPHIMURIUM, Strain/Indicator: TA100, Metabolic Activation: RAT, LIVER, S-9, AROCLOR, Method: STANDARD PLATE",inactive; negative
O[C@@H]1C=Cc2c(ccc3cc4c(ccc5ccccc54)cc23)[C@H]1O,mutagenic call,"Test System: AMES SALMONELLA TYPHIMURIUM, Strain/Indicator: TA100, Metabolic Activation: RAT, LIVER, S-9, AROCLOR 1254, Method: STANDARD PLATE",active; positive
